Measured values: the supplement of paper PMC10307832

Columns and labels:
Test in all cases: relative viability (nuclei count vs DMSO), 5 days (fraction); higher = more cells survive
[1] = compound: COc1cc2nc(N3CCCN(C)CC3)nc(NC3CCN(Cc4ccccc4)CC3)c2cc1OC + C[C@]1(O)C[C@@H](c2nc(-c3ccc4ccc(-c5ccccc5)nc4c3)c3c(N)nccn32)C1 [Linsitinib] (partner 1 µM)
Method in brief: (§1)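 Nuclei were stained with Hoechst during a one-step fixation (final 0.05% Triton X-100, 1% formaldehyde, 1 ug/ml Hoechst) carried out 5 days after dosing, then counted on 4× images. The cells, lung cancer lines in 1536-well plates, had been dosed by pin tool the day after seeding with one drug alone or a fixed anchor-drug dose plus five library-drug doses (not always all listed) in √10 steps. Relative viability is the nuclei count in treated wells divided by that in vehicle wells, and each value is the median of duplicate plates.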

AZD6482 + Crizotinib = compound: Cc1cc([C@@H](C)Nc2ccccc2C(=O)O)c2nc(N3CCOCC3)cc(=O)n2c1 [AZD6482] + C[C@@H](Oc1cc(-c2cnn(C3CCNCC3)c2)cnc1N)c1c(Cl)ccc(F)c1Cl [Crizotinib] (partner 1 µM)
Method in brief: as §1

AZD6482 + Pemetrexed = compound: Cc1cc([C@@H](C)Nc2ccccc2C(=O)O)c2nc(N3CCOCC3)cc(=O)n2c1 [AZD6482] + Nc1nc2[nH]cc(CCc3ccc(C(=O)N[C@@H](CCC(=O)O)C(=O)O)cc3)c2c(=O)[nH]1 [Pemetrexed] (partner 0.2 µM)
Method in brief: as §1

AZD6482 + Olaparib = compound: Cc1cc([C@@H](C)Nc2ccccc2C(=O)O)c2nc(N3CCOCC3)cc(=O)n2c1 [AZD6482] + O=C(c1cc(Cc2n[nH]c(=O)c3ccccc23)ccc1F)N1CCN(C(=O)C2CC2)CC1 [Olaparib] (partner 8 µM)
Method in brief: as §1

| Cell Line | relative viability ([1]; first compound 0.2 µM) | relative viability ([1]; first compound 0.6325 µM) | relative viability ([1]; first compound 2 µM) | relative viability ([1]; first compound 6.325 µM) | relative viability (AZD6482 + Crizotinib; first compound 0.08 µM) | relative viability (AZD6482 + Crizotinib; first compound 0.253 µM) | relative viability (AZD6482 + Crizotinib; first compound 0.8 µM) | relative viability (AZD6482 + Crizotinib; first compound 2.53 µM) | relative viability (AZD6482 + Crizotinib; first compound 8 µM) | relative viability (AZD6482 + Pemetrexed; first compound 0.08 µM) | relative viability (AZD6482 + Pemetrexed; first compound 0.253 µM) | relative viability (AZD6482 + Pemetrexed; first compound 0.8 µM) | relative viability (AZD6482 + Pemetrexed; first compound 2.53 µM) | relative viability (AZD6482 + Pemetrexed; first compound 8 µM) | relative viability (AZD6482 + Olaparib; first compound 0.08 µM) | relative viability (AZD6482 + Olaparib; first compound 0.253 µM) | relative viability (AZD6482 + Olaparib; first compound 0.8 µM) | relative viability (AZD6482 + Olaparib; first compound 2.53 µM) | relative viability (AZD6482 + Olaparib; first compound 8 µM) |
| --- | --- | --- | --- | --- | --- | --- | --- | --- | --- | --- | --- | --- | --- | --- | --- | --- | --- | --- | --- |
| NCI-H1975 | 0.989 | 1.02 | 1.11 | 0.905 | 0.841 | 0.908 | 1.03 | 0.737 | 0.764 | 0.257 | 0.28 | 0.31 | 0.303 | 0.308 | 0.661 | 0.832 | 0.964 | 0.648 | 0.624 |
| CAL-12T | 0.745 | 0.829 | 0.944 | 0.726 | 0.572 | 0.662 | 0.853 | 0.455 | 0.794 | 1.08 | 1.12 | 1.16 | 0.867 | 1.31 | 0.746 | 0.702 | 0.712 | 0.595 | 0.543 |
| HCC-44 | 0.688 | 0.549 | 0.786 | 0.695 | 0.671 | 0.884 | 0.965 | 0.901 | 0.523 | 0.669 | 0.661 | 0.763 | 0.741 | 0.831 | 1 | 1.11 | 1.1 | 1.15 | 1.08 |
| EKVX | 0.986 | 0.922 | 1.07 | 0.891 | 0.855 | 0.939 | 0.788 | 0.537 | 0.584 | 0.368 | 0.373 | 0.317 | 0.265 | 0.348 | 0.671 | 0.773 | 0.855 | 0.469 | 0.595 |
| NCI-H1651 | 1.02 | 0.903 | 1.09 | 0.893 | 0.816 | 0.857 | 0.874 | 0.835 | 0.729 | 0.578 | 0.545 | 0.556 | 0.401 | 0.482 | 0.174 | 0.198 | 0.197 | 0.201 | 0.187 |
| NCI-H1944 | 1.11 | 1.23 | – | 1.13 | 1.01 | 1.07 | 1.12 | 0.836 | 0.792 | 0.535 | 0.575 | 0.604 | 0.427 | 0.499 | 0.399 | 0.443 | 0.428 | 0.337 | 0.388 |
| NCI-H1703 | 0.593 | 0.398 | 0.533 | 0.69 | 0.583 | 0.505 | 0.396 | 0.245 | 0.343 | – | – | – | – | – | 0.342 | 0.456 | 0.258 | 0.133 | 0.167 |
| Calu-6 | 0.881 | 0.903 | 1.02 | 0.962 | 0.701 | 0.741 | 0.796 | 0.639 | 0.782 | – | – | – | – | – | 0.516 | 0.493 | 0.533 | 0.527 | 0.543 |
| EBC-1 | 0.887 | 0.879 | 1.09 | 0.753 | 0.19 | 0.154 | 0.212 | 0.216 | 0.2 | – | – | – | – | – | 0.533 | 0.675 | 0.637 | 0.467 | 0.301 |
| SW 1573 | 0.74 | 0.806 | 0.768 | 0.758 | 0.781 | 0.696 | 0.733 | 0.548 | 0.466 | 0.881 | 0.822 | 0.827 | 0.723 | 0.75 | 0.478 | 0.4 | 0.486 | 0.401 | 0.369 |
| A-427 | 1.13 | 1.06 | 1.13 | 1.18 | 0.747 | 0.858 | 0.788 | 0.732 | 0.962 | 0.92 | 0.967 | 0.963 | 0.686 | 0.995 | 0.5 | 0.718 | 0.739 | 0.514 | 0.66 |
| NCI-H2347 | 0.936 | 0.927 | 0.882 | 0.922 | – | 0.609 | 0.581 | 0.425 | 0.498 | 0.382 | 0.455 | 0.362 | 0.38 | 0.364 | 0.449 | 0.536 | 0.496 | 0.432 | 0.432 |
| NCI-H1355 | 0.881 | 0.784 | 0.831 | 0.808 | 0.777 | 0.959 | 1.07 | 0.797 | 0.726 | 0.939 | 1.07 | 1.07 | 0.856 | 0.875 | 0.597 | 0.63 | 0.708 | 0.522 | 0.564 |
| NCI-H358 | 0.837 | 0.66 | 0.741 | 0.52 | 0.514 | 0.592 | 0.566 | 0.417 | 0.383 | 0.16 | 0.174 | 0.164 | 0.154 | 0.145 | 0.535 | 0.554 | 0.624 | 0.282 | 0.52 |
| PC-3 [JPC-3] | 1 | 0.931 | 1.01 | 0.903 | 0.926 | 0.988 | 0.952 | 0.862 | 1.02 | 1.07 | 1.05 | 1.04 | 0.634 | 0.533 | 1.02 | 1.11 | 1.08 | 0.801 | 1.15 |
